Earlier results in patent publication US20030099724A1, “Compounds for prevention of diabetic retinopathy” (priority 2001, published 2003).

Key:
[1] = test system: diabetic retinopathy; details: rat models

solubility in alcohol (alcohol) | solubility in water (water) | SMILES | progression of diabetic retinopathy [1]
– | – | N=C(N)NN [amino guanidine] | retards the progression of diabetic retinopathy
sparingly soluble | slightly soluble | CCOC(=O)C1=C(COCCN)NC(C)=C(C(=O)OC)C1c1ccccc1Cl (stereo not drawn) [Amlodipine besylate, amlodipine besylate] | –
